# Data: article PMC11036078, “PD‐1 inhibition with retifanlimab and/or arginase inhibition with INCB001158 in Japanese patients with solid tumors: A phase I study” (Cancer Medicine, 2024)
# Experiment: Safety and tolerability (TEAEs, DLTs, irAEs; NCI CTCAE v5.0), phase Ib POD1UM-104
# Settings: in vivo
# Protocol: This was a phase Ib, open‐label, multicenter study (POD1UM‐104 [NCT03910530]). The study was conducted in 2 parts. In Part 1, patients received single‐agent retifanlimab or escalating doses of single‐agent INCB001158 to confirm the RP2D of each agent. Single‐agent dosing was performed to comply with local regulations. In Part 2, patients received the combination of retifanlimab and INCB001158 at their respective RP2D determined in Part 1, to further explore safety and preliminary evidence of clinical activity. Treatment cycles in Part 1 and Part 2 were 28 days, and patients could receive treatment for up to 2 years, or until disease progression, unacceptable toxicity, death, or patient withdrawal.
# In Part 1, 6 patients received retifanlimab 500 mg every 4 weeks (Q4W), given as an i.v. infusion over 60 min; this dose was based on the RP2D determined from global studies. The starting dose of INCB001158 was 75 mg taken orally twice daily (BID). Dose escalation of INCB001158 followed a standard 3 + 3 design; if 75 mg BID was deemed to be tolerable in at least 3 patients, a 100‐mg BID dose level cohort comprising at least 3 patients would be opened.
# DLTs were assessed by the investigator according to the National Cancer Institute (NCI) Common Terminology Criteria for Adverse Events (CTCAE) v5.0 criteria (Table S1).
# The primary endpoints of the study were safety, tolerability, DLTs, and RP2D of single‐agent retifanlimab, INCB001158, and the combination. Adverse events (AEs) were graded by NCI CTCAE v5.0, and immune‐related adverse events (irAEs) were monitored as AEs of special interest. Physical examinations, monitoring of vital signs, electrocardiograms, and laboratory assessments were conducted throughout the study.
# Safety and efficacy analyses were conducted in the full analysis set, which comprised all enrolled patients who received at least 1 dose of the study drug.
# Safety data were summarized using descriptive statistics. PK parameters were summarized by study part, treatment regimen, cohort, dose levels, and/or visit. ORR and DCR were reported with their exact 95% confidence intervals (CIs); DOR was based on the Kaplan–Meier estimate of the distribution function, and the estimated median along with 95% CI was reported. Statistical analyses were performed using SAS® software v9.4 or later (SAS Institute Inc., Cary, NC, USA).
smiles,measurement,setting,value
C[C@H](N)C(=O)N1C[C@H](CCCB(O)O)[C@](N)(C(=O)O)C1 [INCB001158],Serious TEAEs (terms),human,grade 2 inguinal hernia (n = 1)
same,TEAE: ALT increased,human,0 n (%)
same,TEAE: AST increased,human,0 n (%)
same,TEAE: Amylase increased,human,0 n (%)
same,TEAE: Anemia,human,1 (16.7) n (%)
same,TEAE: Blood creatinine increased,human,0 n (%)
same,TEAE: Diarrhea,human,1 (16.7) n (%)
same,TEAE: Nausea,human,0 n (%)
same,TEAE: Pruritus,human,0 n (%)
same,TEAE: Pyrexia,human,0 n (%)
same,TEAE: Rash,human,0 n (%)
same,TRAEs reported (terms),human,diarrhea (n = 1) and anemia and hyperbilirubinemia (n = 1)
same,Treatment discontinuation because of a TEAE,human,0 n (%)
same,Grade 3 AEs reported but not occurring during the treatment window,,anemia
